Test results published in ChEMBL document CHEMBL1201862, “PubChem BioAssay data set” (2004).
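Five concentrations, 48 hours, 96-well plates. Abbreviation: GI50, concentration required for 50% inhibition of growth.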 Active and inactive are the calls of the source. Rule as the data show it: active = GI50 up to about 1.1 µM and inactive = higher. Non-standard residues stand in square brackets, D forms with d. Residues, ends and D or L forms follow the SMILES beside them. *: point of attachment. Ac5c = NC1(C(=O)O)CCCC1; Boc = CC(C)(C)OC(=O)*; tBu = CC(C)(C)*

What was measured:
Test in all cases: NCI anticancer screen, dose series, 48 h
UACC-62 = system: UACC-62
U-251 = system: U-251
OVCAR-4 = system: OVCAR-4
SK-MEL-2 = system: SK-MEL-2
HT-29 = system: HT-29
SF-539 = system: SF-539
M14 = system: M14
SK-MEL-28 = system: SK-MEL-28
SK-MEL-5 = system: SK-MEL-5
NCI-H226 = system: NCI-H226
MDA-N = system: MDA-N
NCI-H23 = system: NCI-H23
T47D = system: T47D
NCI/ADR-RES = system: NCI/ADR-RES
OVCAR-5 = system: OVCAR-5
SR = system: SR
SF-268 = system: SF-268
MDA-MB-231 = system: MDA-MB-231
Hs-578T = system: Hs-578T
BT-549 = system: BT-549

Row | SMILES | GI50 (UACC-62) | GI50 (U-251) | GI50 (OVCAR-4) | GI50 (SK-MEL-2) | GI50 (HT-29) | GI50 (SF-539) | GI50 (M14) | GI50 (SK-MEL-28) | GI50 (SK-MEL-5) | GI50 (NCI-H226) | GI50 (MDA-N) | GI50 (NCI-H23) | GI50 (T47D) | GI50 (NCI/ADR-RES) | GI50 (OVCAR-5) | GI50 (SR) | GI50 (SF-268) | GI50 (MDA-MB-231) | GI50 (Hs-578T) | GI50 (BT-549)
1 | CNc1ncnc2c1nnn2C | > 100 µM (inactive) | > 100 µM (inactive) | > 100 µM (inactive) | > 100 µM (inactive) | > 100 µM (inactive) | > 100 µM (inactive) | > 100 µM (inactive) | > 100 µM (inactive) | > 100 µM (inactive) | > 100 µM (inactive) | > 100 µM (inactive) | > 100 µM (inactive) | > 100 µM (inactive) | > 100 µM (inactive) | – | – | – | – | – | –
2 | CC1C[C@]2(C)C(=S)Nc3ccccc3[C@@H]2Nc2ccccc21 (stereo partly drawn) | 18 µM (inactive) | – | 17.8 µM (inactive) | 13 µM (inactive) | 11.9 µM (inactive) | 19.3 µM (inactive) | 17.4 µM (inactive) | 0.39 µM (active) | 17.7 µM (inactive) | 17.3 µM (inactive) | 15 µM (inactive) | 15.2 µM (inactive) | 17.9 µM (inactive) | 18.5 µM (inactive) | 20.8 µM (inactive) | > 100 µM (inactive) | 1.11 µM (active) | 13.2 µM (inactive) | 35.2 µM (inactive) | –
3 | Cc1cc(-c2no[n+]([O-])c2-c2cc(C)sc2S(C)(=O)=O)c(S(C)(=O)=O)s1 | – | > 100 µM (inactive) | > 100 µM (inactive) | > 100 µM (inactive) | > 100 µM (inactive) | > 100 µM (inactive) | > 100 µM (inactive) | > 100 µM (inactive) | > 100 µM (inactive) | > 100 µM (inactive) | – | > 100 µM (inactive) | 89.5 µM (inactive) | > 100 µM (inactive) | > 100 µM (inactive) | > 100 µM (inactive) | > 100 µM (inactive) | > 100 µM (inactive) | > 100 µM (inactive) | –
4 | CCOc1cc(/C=C2/C(C)=NN(c3cccc(Cl)c3)/C2=N/c2nc3ccccc3s2)ccc1O | – | 20.3 µM (inactive) | – | 21.1 µM (inactive) | 41.2 µM (inactive) | 24.5 µM (inactive) | 24.9 µM (inactive) | 34.7 µM (inactive) | 17.8 µM (inactive) | 23.7 µM (inactive) | – | 19.4 µM (inactive) | 38.6 µM (inactive) | 20.5 µM (inactive) | 98.9 µM (inactive) | 27.9 µM (inactive) | 28.2 µM (inactive) | 24.7 µM (inactive) | 29.7 µM (inactive) | –
5 | CC(=O)N1NC(c2ccccc2)=CC(=O)/C1=C/C(=O)c1ccccc1 | 42.5 µM (inactive) | > 100 µM (inactive) | 84.1 µM (inactive) | > 100 µM (inactive) | > 100 µM (inactive) | 32.1 µM (inactive) | 82.2 µM (inactive) | > 100 µM (inactive) | 47.8 µM (inactive) | 93.8 µM (inactive) | 30.6 µM (inactive) | > 100 µM (inactive) | 39.3 µM (inactive) | 50.4 µM (inactive) | > 100 µM (inactive) | 20.7 µM (inactive) | 29.2 µM (inactive) | > 100 µM (inactive) | 39.9 µM (inactive) | –
6 | O=C1C2Nc3ccccc3SC2C(=O)N1c1ccccc1C(F)(F)F (stereo not drawn) | 19 µM (inactive) | 19.1 µM (inactive) | 43.1 µM (inactive) | 27.2 µM (inactive) | 26.4 µM (inactive) | 17.8 µM (inactive) | 16 µM (inactive) | 51.9 µM (inactive) | 12 µM (inactive) | 43.1 µM (inactive) | – | 24 µM (inactive) | – | – | > 100 µM (inactive) | 32.7 µM (inactive) | 41.1 µM (inactive) | – | – | –
7 | O=c1c2ccccc2nc(-c2ccccc2)n1NC(=S)Nc1cccc(Cl)c1 | 75 µM (inactive) | 43.8 µM (inactive) | > 100 µM (inactive) | > 100 µM (inactive) | > 100 µM (inactive) | 79.1 µM (inactive) | > 100 µM (inactive) | > 100 µM (inactive) | > 100 µM (inactive) | > 100 µM (inactive) | – | > 100 µM (inactive) | – | – | > 100 µM (inactive) | > 100 µM (inactive) | 43.7 µM (inactive) | – | – | –
8 | CCC1=CCC23C(=O)C=CC(=O)C2(C1)C(=O)c1cccc(OC)c1C3=O (stereo not drawn) | 15.8 µM (inactive) | 23 µM (inactive) | 12.7 µM (inactive) | 22.7 µM (inactive) | 20.3 µM (inactive) | 18.4 µM (inactive) | 16 µM (inactive) | 18.2 µM (inactive) | 16.8 µM (inactive) | 22.1 µM (inactive) | 16.5 µM (inactive) | 21.1 µM (inactive) | 0.409 µM (active) | 20.2 µM (inactive) | 16.2 µM (inactive) | 9.82 µM (inactive) | 17.6 µM (inactive) | 15.1 µM (inactive) | 20.2 µM (inactive) | –
9 | NNC(=O)CC(=O)Nc1ccc(S(=O)(=O)c2ccc(NC(=O)CC(=O)NN)cc2)cc1 | > 100 µM (inactive) | > 100 µM (inactive) | > 100 µM (inactive) | > 100 µM (inactive) | > 100 µM (inactive) | > 100 µM (inactive) | > 100 µM (inactive) | > 100 µM (inactive) | > 100 µM (inactive) | > 100 µM (inactive) | – | > 100 µM (inactive) | > 100 µM (inactive) | > 100 µM (inactive) | > 100 µM (inactive) | – | > 100 µM (inactive) | > 100 µM (inactive) | > 100 µM (inactive) | > 100 µM (inactive)
10 | CC1(C)O[C@H]2OC(CO)C(N=[N+]=[N-])[C@H]2O1 (stereo partly drawn) | > 100 µM (inactive) | > 100 µM (inactive) | > 100 µM (inactive) | > 100 µM (inactive) | > 100 µM (inactive) | > 100 µM (inactive) | > 100 µM (inactive) | > 100 µM (inactive) | > 100 µM (inactive) | – | > 100 µM (inactive) | > 100 µM (inactive) | > 100 µM (inactive) | > 100 µM (inactive) | > 100 µM (inactive) | > 100 µM (inactive) | > 100 µM (inactive) | > 100 µM (inactive) | > 100 µM (inactive) | –
11 | O=[N+]([O-])c1ccc(-c2ccc(-c3csc(Nc4ccccc4)n3)o2)cc1 | 21.3 µM (inactive) | 19.6 µM (inactive) | 17.3 µM (inactive) | 19.2 µM (inactive) | 22.7 µM (inactive) | 18.8 µM (inactive) | 20.6 µM (inactive) | 17.6 µM (inactive) | 19.5 µM (inactive) | 40.6 µM (inactive) | – | 20.2 µM (inactive) | – | – | 17.7 µM (inactive) | 1.9 µM (inactive) | 18.2 µM (inactive) | – | – | –
12 | CCOC(=O)/C(=C\c1cccs1)P(=O)(OCC)OCC | 16.4 µM (inactive) | 20.2 µM (inactive) | 19 µM (inactive) | 16.4 µM (inactive) | 20.6 µM (inactive) | 20.8 µM (inactive) | 16.1 µM (inactive) | 17.2 µM (inactive) | 17 µM (inactive) | 18.7 µM (inactive) | – | 18.9 µM (inactive) | – | – | 21.9 µM (inactive) | 19.1 µM (inactive) | 24.1 µM (inactive) | – | – | –
13 | N=c1c2c(ncn1N)Oc1c(c(-c3ccccc3)nn1-c1ccccc1)C2c1ccc(Cl)cc1 (stereo not drawn) | 1.54 µM (inactive) | 1.65 µM (inactive) | 1.56 µM (inactive) | 1.69 µM (inactive) | 1.39 µM (inactive) | 1.18 µM (inactive) | 1.56 µM (inactive) | 1.76 µM (inactive) | – | 1.98 µM (inactive) | 1.82 µM (inactive) | 1.87 µM (inactive) | 2.3 µM (inactive) | 1.68 µM (inactive) | 1.5 µM (inactive) | 0.918 µM (active) | 1.71 µM (inactive) | 2.63 µM (inactive) | 1.64 µM (inactive) | –
14 | CC(C)[Si](OC1=C(C(=O)N(C)c2ccccc2Cl)CCCC1)(C(C)C)C(C)C | 15.7 µM (inactive) | 12.1 µM (inactive) | 13.9 µM (inactive) | 14.1 µM (inactive) | 15.8 µM (inactive) | 18 µM (inactive) | 16.1 µM (inactive) | 19 µM (inactive) | 13.8 µM (inactive) | 16 µM (inactive) | 16.4 µM (inactive) | 16.3 µM (inactive) | 2.55 µM (inactive) | 14.9 µM (inactive) | 12.8 µM (inactive) | 5.43 µM (inactive) | 13.9 µM (inactive) | 16.3 µM (inactive) | 13.3 µM (inactive) | –
15 | C[C@@H]1OC2(O)[C@@H]3CCCN3C(=O)N(Cc3ccccc3)N2C1=O (stereo partly drawn) | > 100 µM (inactive) | – | > 100 µM (inactive) | > 100 µM (inactive) | > 100 µM (inactive) | > 100 µM (inactive) | > 100 µM (inactive) | > 100 µM (inactive) | > 100 µM (inactive) | > 100 µM (inactive) | > 100 µM (inactive) | > 100 µM (inactive) | > 100 µM (inactive) | > 100 µM (inactive) | > 100 µM (inactive) | > 100 µM (inactive) | > 100 µM (inactive) | > 100 µM (inactive) | > 100 µM (inactive) | –
16 | CC(OC(C)(C)C)C1NC(=O)C(CCCCNC(=O)OC(C)(C)C)NC(=O)C(Cc2c[nH]c3ccccc23)NC(=O)C(Cc2ccccc2)NC(=O)C2(CCCC2)NC(=O)C(Cc2ccccc2)NC1=O (stereo not drawn) (cyclo([Ac5c]FWK(Boc)T(tBu)F); configuration not given here) | 21.6 µM (inactive) | 15.8 µM (inactive) | 49.9 µM (inactive) | – | 24 µM (inactive) | 36.9 µM (inactive) | 16.7 µM (inactive) | 22.3 µM (inactive) | 15.9 µM (inactive) | 21.5 µM (inactive) | 43.2 µM (inactive) | 36.9 µM (inactive) | 10.4 µM (inactive) | > 100 µM (inactive) | 72.6 µM (inactive) | 32.2 µM (inactive) | 16.6 µM (inactive) | 17.5 µM (inactive) | 33.3 µM (inactive) | –
